From patent US8003660B2, “Modulators of muscarinic receptors” (Vertex Pharmaceuticals Incorporated, priority 2006, dated 2011)

Legend:
Assay type in all cases: cell-based
M4 muscarinic receptor = target: T1, M4 muscarinic receptor (Homo sapiens, UniProt P08173); assay: Functional mobilization of intracellular calcium (FLIPR) in CHO cells expressing M4; details: for M4 Activity: CHO cells expressing M4, FLIPR calcium assay; for Emax: CHO, 100% efficacy = maximum response obtained with the Carbachol control
T1 construct: expressed in transfected cells; host or cells: CHO (M4-CHO)
T1 sequence (P08173 1-479): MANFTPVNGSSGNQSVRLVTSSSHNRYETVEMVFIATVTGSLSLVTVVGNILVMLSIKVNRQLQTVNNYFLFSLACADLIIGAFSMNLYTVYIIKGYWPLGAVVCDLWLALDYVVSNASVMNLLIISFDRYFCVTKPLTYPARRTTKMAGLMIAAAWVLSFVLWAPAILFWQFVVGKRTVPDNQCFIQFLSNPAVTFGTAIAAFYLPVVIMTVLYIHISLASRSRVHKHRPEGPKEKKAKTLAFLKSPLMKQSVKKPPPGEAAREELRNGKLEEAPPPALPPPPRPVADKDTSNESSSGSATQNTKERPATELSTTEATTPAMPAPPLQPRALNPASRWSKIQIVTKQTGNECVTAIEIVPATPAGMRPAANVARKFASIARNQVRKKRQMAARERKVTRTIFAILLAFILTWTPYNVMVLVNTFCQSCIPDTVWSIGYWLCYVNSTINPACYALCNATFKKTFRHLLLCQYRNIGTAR
In short: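 Read-out: FLIPR fluorescence (ex 488, em 540 nm) over 60 s. Recombinant CHO lines are dye-loaded (Fluo-3 AM or Calcium 3) with 1 mM probenecid. For antagonist mode, compound is pre-incubated 15 min, or co-applied, then carbachol is added at 3× EC80 per subtype.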

M2 muscarinic receptor = target: T2, M2 muscarinic receptor (Homo sapiens, UniProt P08172); assay: Functional mobilization of intracellular calcium (FLIPR) in CHO cells expressing M2; details: for M2 Activity: CHO cells expressing M2, FLIPR calcium assay; for Emax: CHO, 100% efficacy = maximum response obtained with the Carbachol control
T2 construct: expressed in transfected cells; host or cells: CHO (M2-CHO)
T2 sequence (P08172 1-466): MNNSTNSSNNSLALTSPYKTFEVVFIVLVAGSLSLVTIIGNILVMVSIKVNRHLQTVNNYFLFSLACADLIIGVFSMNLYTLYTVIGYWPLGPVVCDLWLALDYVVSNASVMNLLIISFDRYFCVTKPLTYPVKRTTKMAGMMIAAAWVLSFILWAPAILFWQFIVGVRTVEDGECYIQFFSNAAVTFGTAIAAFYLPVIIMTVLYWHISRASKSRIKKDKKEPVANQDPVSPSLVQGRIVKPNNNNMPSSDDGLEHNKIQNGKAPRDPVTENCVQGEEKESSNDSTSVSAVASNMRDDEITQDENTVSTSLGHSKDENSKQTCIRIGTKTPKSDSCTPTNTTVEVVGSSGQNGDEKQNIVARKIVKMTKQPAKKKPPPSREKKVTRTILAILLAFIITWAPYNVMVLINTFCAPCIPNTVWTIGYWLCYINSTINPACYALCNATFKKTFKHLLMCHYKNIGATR
In short: (§1)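 Calcium flux is read on FLIPR over 60 sec at 488/540 nm in muscarinic-receptor CHO lines. Antagonist mode adds carbachol at EC80 after 15 min compound preincubation or with simultaneous co-application. Agonist mode adds compound alone. Cells carry Fluo-3 or Calcium 3 dye in probenecid-containing pH 7.4 buffer, 0.5% DMSO final.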

M1 muscarinic receptor = target: T3, M1 muscarinic receptor (Homo sapiens, UniProt P11229); assay: Functional mobilization of intracellular calcium (FLIPR) in CHO cells expressing M1; details: for M1 Activity: CHO cells expressing M1, FLIPR calcium assay; for Emax: CHO, 100% efficacy = maximum response obtained with the Carbachol control
T3 construct: expressed in transfected cells; host or cells: CHO (M1-CHO)
T3 sequence (P11229 1-460): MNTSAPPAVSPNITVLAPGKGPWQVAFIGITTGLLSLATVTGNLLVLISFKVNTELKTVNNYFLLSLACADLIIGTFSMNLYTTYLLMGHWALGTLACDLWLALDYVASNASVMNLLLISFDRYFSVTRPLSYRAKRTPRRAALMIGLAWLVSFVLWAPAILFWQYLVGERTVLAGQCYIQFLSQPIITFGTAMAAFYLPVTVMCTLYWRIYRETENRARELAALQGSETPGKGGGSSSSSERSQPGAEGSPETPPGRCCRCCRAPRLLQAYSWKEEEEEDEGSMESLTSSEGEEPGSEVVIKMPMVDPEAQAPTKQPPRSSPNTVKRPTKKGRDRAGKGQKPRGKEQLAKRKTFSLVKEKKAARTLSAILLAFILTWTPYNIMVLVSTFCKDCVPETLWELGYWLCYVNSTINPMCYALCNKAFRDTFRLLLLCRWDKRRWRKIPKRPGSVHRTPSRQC
In short: as §1

M3 muscarinic receptor = target: T4, M3 muscarinic receptor (Homo sapiens, UniProt P20309); assay: Functional mobilization of intracellular calcium (FLIPR) in CHO cells expressing M3; details: for M3 Activity: CHO cells expressing M3, FLIPR calcium assay; for Emax: CHO, 100% efficacy = maximum response obtained with the Carbachol control
T4 construct: expressed in transfected cells; host or cells: CHO (M3-CHO)
T4 sequence (P20309 whole entry): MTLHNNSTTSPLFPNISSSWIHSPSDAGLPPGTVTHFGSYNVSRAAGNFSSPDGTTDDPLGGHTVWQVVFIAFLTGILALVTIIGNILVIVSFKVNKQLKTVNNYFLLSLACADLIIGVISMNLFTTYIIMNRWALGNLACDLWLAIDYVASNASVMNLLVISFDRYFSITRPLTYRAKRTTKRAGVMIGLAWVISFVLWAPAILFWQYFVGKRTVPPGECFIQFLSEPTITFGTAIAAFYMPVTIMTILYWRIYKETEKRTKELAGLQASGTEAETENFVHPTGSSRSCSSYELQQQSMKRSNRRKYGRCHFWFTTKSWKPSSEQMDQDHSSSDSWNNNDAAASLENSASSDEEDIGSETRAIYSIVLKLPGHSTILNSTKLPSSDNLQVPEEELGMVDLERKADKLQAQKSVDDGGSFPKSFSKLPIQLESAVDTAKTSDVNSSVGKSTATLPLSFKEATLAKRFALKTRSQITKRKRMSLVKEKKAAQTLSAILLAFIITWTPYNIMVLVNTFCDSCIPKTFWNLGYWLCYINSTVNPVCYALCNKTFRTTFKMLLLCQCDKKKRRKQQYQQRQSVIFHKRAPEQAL
In short: as §1

| Compound | M4 Activity (M4 muscarinic receptor) | Emax (M4 muscarinic receptor) [%] | M2 Activity (M2 muscarinic receptor) | Emax (M2 muscarinic receptor) [%] | M1 Activity (M1 muscarinic receptor) | Emax (M1 muscarinic receptor) [%] | M3 Activity (M3 muscarinic receptor) | Emax (M3 muscarinic receptor) [%] |
| --- | --- | --- | --- | --- | --- | --- | --- | --- |
| CC(C)CCN1CCC2(CC1)C[C@H](NC(=O)C1CC1)c1ccccc12 [compound 247] | + (activity was measured to be greater than 5.0 μM) | < 25 | + (activity was measured to be greater than 5.0 μM) | < 25 | + (activity was measured to be greater than 5.0 μM) | 25 to 100 | + (activity was measured to be greater than 5.0 μM) | < 25 |
| CC/C=C\CCCCCCN1CCC2(CC1)C[C@H](NC(C)=O)c1ccccc12 [compound 248] | + (activity was measured to be greater than 5.0 μM) | 25 to 100 | + (activity was measured to be greater than 5.0 μM) | < 25 | ++ (activity was measured to be from 2.0 μM to 5.0 μM) | 25 to 100 | + (activity was measured to be greater than 5.0 μM) | < 25 |
| CC(C)(C)CCN1CCC2(CC1)CC(C(=O)O)c1ccccc12 (centres unmarked) [compound 250] | + (activity was measured to be greater than 5.0 μM) | 25 to 100 | + (activity was measured to be greater than 5.0 μM) | < 25 | + (activity was measured to be greater than 5.0 μM) | 25 to 100 | + (activity was measured to be greater than 5.0 μM) | < 25 |
| CC(C)(C)CCN1CCC2(CC1)C[C@H](NC(=O)N1CCCC1)c1ccccc12 [compound 251] | + (activity was measured to be greater than 5.0 μM) | < 25 | + (activity was measured to be greater than 5.0 μM) | < 25 | + (activity was measured to be greater than 5.0 μM) | < 25 | + (activity was measured to be greater than 5.0 μM) | < 25 |
| Cc1ccc2c(c1)C(=O)CC21CCN(C(=O)OC(C)(C)C)CC1 [compound 252] | + (activity was measured to be greater than 5.0 μM) | < 25 | + (activity was measured to be greater than 5.0 μM) | < 25 | + (activity was measured to be greater than 5.0 μM) | < 25 | + (activity was measured to be greater than 5.0 μM) | < 25 |
| CC(=O)N[C@H]1CC2(CCN(CCC(C)(C)C)CC2)c2ccc(C)cc21 [compound 253] | + (activity was measured to be greater than 5.0 μM) | 25 to 100 | + (activity was measured to be greater than 5.0 μM) | < 25 | + (activity was measured to be greater than 5.0 μM) | < 25 | + (activity was measured to be greater than 5.0 μM) | < 25 |
| CC(C)(C)OC(=O)N1CCC2(CC1)C[C@H](NC(=O)c1ccccc1)c1ccccc12 [compound 255] | + (activity was measured to be greater than 5.0 μM) | < 25 | + (activity was measured to be greater than 5.0 μM) | < 25 | + (activity was measured to be greater than 5.0 μM) | < 25 | + (activity was measured to be greater than 5.0 μM) | < 25 |
| CC(=O)N[C@H]1CC2(CCN(CC(=O)O)CC2)c2ccccc21 [compound 256] | + (activity was measured to be greater than 5.0 μM) | < 25 | + (activity was measured to be greater than 5.0 μM) | < 25 | + (activity was measured to be greater than 5.0 μM) | < 25 | + (activity was measured to be greater than 5.0 μM) | < 25 |
| COC(=O)CCCCCN1CCC2(CC1)C[C@H](NC(C)=O)c1ccccc12 [compound 257] | +++ (activity was measured to be less than 2.0 μM) | 25 to 100 | +++ (activity was measured to be less than 2.0 μM) | 25 to 100 | +++ (activity was measured to be less than 2.0 μM) | > 100 | + (activity was measured to be greater than 5.0 μM) | 25 to 100 |
| CC(=O)N[C@H]1CC2(CCN(CC(=O)N(CC#N)C(C)C)CC2)c2ccccc21 [compound 258] | + (activity was measured to be greater than 5.0 μM) | < 25 | + (activity was measured to be greater than 5.0 μM) | < 25 | + (activity was measured to be greater than 5.0 μM) | < 25 | + (activity was measured to be greater than 5.0 μM) | < 25 |
| CC(C)CCN1CCC2(CC1)CC(C(=O)O)c1ccccc12 (centres unmarked) [compound 259] | + (activity was measured to be greater than 5.0 μM) | < 25 | + (activity was measured to be greater than 5.0 μM) | < 25 | + (activity was measured to be greater than 5.0 μM) | 25 to 100 | + (activity was measured to be greater than 5.0 μM) | < 25 |
| CC(=O)NC1CCC2(CCN(C(=O)OC(C)(C)C)CC2)c2ccccc21 (centres unmarked) [compound 260] | – | < 25 | – | < 25 | – | < 25 | – | < 25 |
| CC(=O)N[C@H]1CC2(CCN(C(=O)OC(C)(C)C)CC2)c2ccc(C)cc21 [compound 261] | + (activity was measured to be greater than 5.0 μM) | < 25 | + (activity was measured to be greater than 5.0 μM) | < 25 | + (activity was measured to be greater than 5.0 μM) | < 25 | + (activity was measured to be greater than 5.0 μM) | < 25 |
| C#CCNC(=O)CN1CCC2(CC1)C[C@H](NC(C)=O)c1ccccc12 [compound 262] | + (activity was measured to be greater than 5.0 μM) | < 25 | + (activity was measured to be greater than 5.0 μM) | < 25 | + (activity was measured to be greater than 5.0 μM) | < 25 | + (activity was measured to be greater than 5.0 μM) | < 25 |
| C=CCC(C)(C)CN1CCC2(CC1)C[C@H](NC(C)=O)c1ccccc12 [compound 263] | ++ (activity was measured to be from 2.0 μM to 5.0 μM) | < 25 | + (activity was measured to be greater than 5.0 μM) | < 25 | + (activity was measured to be greater than 5.0 μM) | 25 to 100 | + (activity was measured to be greater than 5.0 μM) | < 25 |
